Reference: PMC6150693 (Journal of the American Chemical Society, 2017)

Target: T1, SBD2 (Lactococcus lactis, UniProt Q9CES5)
T1 sequence (Q9CES5 253-484 limits assumed): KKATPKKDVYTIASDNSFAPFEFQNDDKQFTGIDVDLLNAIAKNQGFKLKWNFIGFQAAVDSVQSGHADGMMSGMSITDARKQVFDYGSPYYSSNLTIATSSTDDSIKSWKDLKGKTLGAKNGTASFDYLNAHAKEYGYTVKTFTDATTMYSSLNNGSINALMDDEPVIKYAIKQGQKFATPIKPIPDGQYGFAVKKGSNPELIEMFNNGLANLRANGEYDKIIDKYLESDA
Assay: single-molecule ClyA nanopore current, relative closed population
Type: binding

Kd: 830 ± 100 nM
SMILES: NC(=O)CC[C@H](N)C(=O)O [glutamine]
